From the supplement of paper PMC13380429

Columns and labels:
Settings in all cases: 72 h
Calu-3 [1] = assay: drug sensitivity score (DSS) for viability; higher = more toxic; extreme values may be limits of the assay
HepG2 [2] = assay: as above
U2OS [3] = assay: as above
Caco-2 [4] = assay: as above
Vero E6 [5] = assay: as above
Calu-3 [6] = assay: cell viability relative to DMSO; higher = less toxic
HepG2 [7] = assay: as above
U2OS [8] = assay: as above
Caco-2 [9] = assay: as above
Vero E6 [10] = assay: as above
Calu-3 [11] = assay: relative viability EC50 (midpoint between 100% and the lowest measured viability); higher = less toxic
HepG2 [12] = assay: as above
U2OS [13] = assay: as above
Caco-2 [14] = assay: as above
Vero E6 [15] = assay: as above

Row | Structure (SMILES) | drug sensitivity score (Calu-3 [1]) | drug sensitivity score (HepG2 [2]) | drug sensitivity score (U2OS [3]) | drug sensitivity score (Caco-2 [4]) | drug sensitivity score (Vero E6 [5]) | cell viability (Calu-3 [6]; 1 nM) | cell viability (Calu-3 [6]; 10 nM) | cell viability (Calu-3 [6]; 100 nM) | cell viability (Calu-3 [6]; 1000 nM) | cell viability (Calu-3 [6]; 10000 nM) | cell viability (HepG2 [7]; 1 nM) | cell viability (HepG2 [7]; 10 nM) | cell viability (HepG2 [7]; 100 nM) | cell viability (HepG2 [7]; 1000 nM) | cell viability (HepG2 [7]; 10000 nM) | cell viability (U2OS [8]; 1 nM) | cell viability (U2OS [8]; 10 nM) | cell viability (U2OS [8]; 100 nM) | cell viability (U2OS [8]; 1000 nM) | cell viability (U2OS [8]; 10000 nM) | cell viability (Caco-2 [9]; 1 nM) | cell viability (Caco-2 [9]; 10 nM) | cell viability (Caco-2 [9]; 100 nM) | cell viability (Caco-2 [9]; 1000 nM) | cell viability (Caco-2 [9]; 10000 nM) | cell viability (Vero E6 [10]; 1 nM) | cell viability (Vero E6 [10]; 10 nM) | cell viability (Vero E6 [10]; 100 nM) | cell viability (Vero E6 [10]; 1000 nM) | cell viability (Vero E6 [10]; 10000 nM) | relative viability EC50 (Calu-3 [11]) | relative viability EC50 (HepG2 [12]) | relative viability EC50 (U2OS [13]) | relative viability EC50 (Caco-2 [14]) | relative viability EC50 (Vero E6 [15])
1 | Nc1nc(F)nc2c1ncn2[C@@H]1O[C@H](CO)[C@@H](O)[C@@H]1O [fludarabine] | 0.7 | 1.1 | 0 | 0 | 0 | 111% | 88.9% | 95.2% | 87.6% | 87.5% | 103% | 95.6% | 95.2% | 95.6% | 79.4% | 98.8% | 102% | 98.6% | 102% | 103% | 94.1% | 104% | 102% | 99.9% | 102% | 93.9% | 95.2% | 92.8% | 99.4% | 101% | > 10 µM | > 10 µM | > 10 µM | > 10 µM | > 10 µM
2 | C[C@]12CCC(=O)C(O)=C1CC[C@@H]1[C@@H]2CC[C@]2(C)C(=O)CC[C@@H]12 [formestane] | 0 | 0 | 0 | 0 | 0 | 98.7% | 96.1% | 91.4% | 93.8% | 93.3% | 117% | 111% | 108% | 112% | 98.6% | 102% | 98.2% | 102% | 95.3% | 105% | 114% | 96.9% | 95% | 105% | 117% | 97.8% | 92.4% | 86.7% | 103% | 104% | > 10 µM | > 10 µM | > 10 µM | > 10 µM | > 10 µM
3 | C[C@]12CC[C@@H]3c4ccc(O)cc4C[C@@H](CCCCCCCCC[S+]([O-])CCCC(F)(F)C(F)(F)F)[C@H]3[C@@H]1CC[C@@H]2O (stereo not given in full) [fulvestrant] | 0 | 0.3 | 0 | 0.1 | 0 | 96.7% | 114% | 104% | 90.2% | 92.7% | 100% | 102% | 96.8% | 98% | 86.7% | 105% | 110% | 102% | 103% | 88.7% | 104% | 107% | 102% | 110% | 85.4% | 100% | 102% | 100% | 96.9% | 99.6% | > 10 µM | > 10 µM | > 10 µM | > 10 µM | > 10 µM
4 | CCC(C/C=C/c1ccccc1)(c1ccccc1)N(C)CC1CC1 (stereo not given) [igmesine] | 0 | 0 | 0 | 0 | 0 | 99% | 104% | 96.8% | 102% | 97.8% | 102% | 105% | 101% | 102% | 96.8% | 94.7% | 99% | 100% | 101% | 102% | 95.4% | 97% | 95.2% | 102% | 103% | 98.8% | 97.7% | 94.2% | 98.1% | 107% | > 10 µM | > 10 µM | > 10 µM | > 10 µM | > 10 µM
5 | O=C(CCCCC(=O)Nc1c(I)cc(I)c(C(=O)O)c1I)Nc1c(I)cc(I)c(C(=O)O)c1I [iodipamide] | 0 | 0 | 0 | 0 | 0 | 98% | 104% | 93.6% | 101% | 101% | 96% | 93.3% | 97.6% | 101% | 103% | 96.2% | 103% | 97.7% | 95.1% | 97.9% | 106% | 106% | 97.1% | 95.3% | 102% | 102% | 99.2% | 101% | 98.6% | 103% | > 10 µM | > 10 µM | > 10 µM | > 10 µM | > 10 µM
6 | CC(=O)N(CC(O)CO)c1c(I)c(C(=O)NCCO)c(I)c(C(=O)NCC(O)CO)c1I (stereo not given) [ioxilan] | 0 | 0 | 0 | 0 | 0 | 105% | 96.9% | 99.7% | 101% | 88.9% | 105% | 101% | 86% | 109% | 90.8% | 97.1% | 97.1% | 101% | 92.8% | 102% | 103% | 91.6% | 93.6% | 90.5% | 90.6% | 113% | 103% | 93% | 106% | 101% | > 10 µM | > 10 µM | > 10 µM | > 10 µM | > 10 µM
7 | CC(C)Cn1cnc2c1c(=O)n(C)c(=O)n2C [isbufylline] | 0 | 0 | 0 | 0 | 0 | 104% | 88.5% | 101% | 102% | 98.4% | 100% | 99% | 91.7% | 93.7% | 105% | 98.1% | 96.5% | 98.1% | 97.3% | 93.3% | 93.7% | 96.8% | 112% | 115% | 112% | 92.9% | 95.9% | 91.3% | 104% | 106% | > 10 µM | > 10 µM | > 10 µM | > 10 µM | > 10 µM
